Reference: US9828369B2, “Isoquinoline derivatives useful as inhibitors of diacylglyceride O-acyltransferase 2” (Merck Sharp & Dohme Corp., priority 2014, dated 2017)

Biological target: hDGAT2 (Homo sapiens (Human), UniProt Q96PD7)
Experiment: DGAT2 enzymatic activity assay (triolein formation, LC/MS/MS)
Conditions: read-out: IC50 values for inhibition of DGAT2; membrane prep of Sf-9 cells expressing hDGAT2; 25 μM diolein, 10 μM oleoyl-CoA; room temperature; triolein by LC/MS/MS

Chain of hDGAT2 (Q96PD7 whole entry): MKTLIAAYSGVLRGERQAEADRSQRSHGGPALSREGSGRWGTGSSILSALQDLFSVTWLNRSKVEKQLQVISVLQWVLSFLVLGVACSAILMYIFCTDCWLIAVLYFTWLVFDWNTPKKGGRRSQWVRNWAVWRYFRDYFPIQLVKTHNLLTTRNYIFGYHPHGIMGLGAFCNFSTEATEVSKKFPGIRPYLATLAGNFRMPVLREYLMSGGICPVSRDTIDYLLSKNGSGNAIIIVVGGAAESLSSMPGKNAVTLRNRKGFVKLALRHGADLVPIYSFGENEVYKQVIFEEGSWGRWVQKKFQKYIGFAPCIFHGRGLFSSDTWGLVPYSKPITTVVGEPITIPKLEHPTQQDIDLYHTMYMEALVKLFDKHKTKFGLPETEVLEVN

| Compound | IC50 [nM] |
| --- | --- |
| COc1cccc(-c2ccc(CNC(=O)C(C)c3ccc(C#N)cc3)c3cnccc23)c1 (stereo not shown) [Example 136, 2-(4-cyanophenyl)-N-((5-(3-methoxyphenyl)isoquinolin-8-yl)methyl)propanamide] | 256 |
| COc1cccc(-c2ccc(CNC(=O)C(C)c3ccc(OC(F)(F)F)cc3)c3cnccc23)c1 (stereo not shown) [Example 137, N-((5-(3-methoxyphenyl)isoquinolin-8-yl)methyl)-2-(4-(trifluoromethoxy)phenyl)propanamide] | 484 |
| COc1cccc(-c2ccc(CNC(=O)C(C)c3ccccc3)c3cnccc23)c1 (stereo not shown) [Example 138, N-((5-(3-methoxyphenyl)isoquinolin-8-yl)methyl)-2-phenylpropanamide] | 298 |
| COc1cccc(-c2ccc(CNC(=O)C(C)c3ccccc3F)c3cnccc23)c1 (stereo not shown) [Example 139, 2-(2-fluorophenyl)-N-((5-(3-methoxyphenyl)isoquinolin-8-yl)methyl)propanamide] | 213 |
| COc1cccc(-c2ccc(CNC(=O)C(C)c3ccc(C(F)(F)F)cc3)c3cnccc23)c1 (stereo not shown) [Example 141, N-((5-(3-methoxyphenyl)isoquinolin-8-yl)methyl)-2-(4-(trifluoromethyl)phenyl)propanamide] | 566 |
| COc1cccc(-c2ccc(CNC(=O)C(C)c3ccc4cc(OC)ccc4c3)c3cnccc23)c1 (stereo not shown) [Example 143, 2-(6-methoxynaphthalen-2-yl)-N-((5-(3-methoxyphenyl)isoquinolin-8-yl)methyl)propanamide] | 197 |
| COc1cccc(-c2ccc(CNC(=O)C(C)c3ccc(C4CCCCC4)c(Cl)c3)c3cnccc23)c1 (stereo not shown) [Example 148, 2-(3-chloro-4-cyclohexylphenyl)-N-((5-(3-methoxyphenyl)isoquinolin-8-yl)methyl)propanamide] | 6890 |
| COc1cccc(-c2ccc(CNC(=O)Cc3ccc(C(F)(F)F)cc3)c3ncccc23)c1 [Example 150, N-((5-(3-methoxyphenyl)quinolin-8-yl)methyl)-2-(4-(trifluoromethyl)phenyl)acetamide] | 426 |
| COc1cccc(-c2ccc(CNC(=O)Nc3ccc(OC(F)(F)F)cc3)c3cnccc23)c1 [Example 151, 1-((5-(3-methoxyphenyl)isoquinolin-8-yl)methyl)-3-(4-(trifluoromethoxy)phenyl)urea] | 938 |
| COc1cc(OC)cc(-c2ccc(CNC(=O)Nc3cccc(Cl)c3Cl)c3cnccc23)c1 [Example 152, 1-(2,3-dichlorophenyl)-3-((5-(3,5-dimethoxyphenyl)isoquinolin-8-yl)methyl)urea] | 198 |
| COC(=O)c1ccccc1NC(=O)NCc1ccc(-c2cccc(OC)c2)c2ccncc12 [Example 153, methyl 2-(3-((5-(3-methoxyphenyl)isoquinolin-8-yl)methyl)ureido)benzoate] | 1110 |
| COc1cccc(-c2ccc(CNC(=O)c3ccn(C)n3)c3cnccc23)c1 [Example 154, N-((5-(3-methoxyphenyl)isoquinolin-8-yl)methyl)-1-methyl-1H-pyrazole-3-carboxamide] | 3270 |
| COc1cccc(-c2ccc(CNC(=O)Nc3cccc(-c4ccccc4)c3)c3cnccc23)c1 [Example 157, 1-([1,1′-biphenyl]-3-yl)-3-((5(3-methoxyphenyl)isoquinolin-8-yl)methyl)urea] | 116 |
| C=C(c1ccccc1)c1ccc(CNC(=O)Nc2cccc(Cl)c2Cl)c2cnccc12 [Example 158, 1-(2,3-dichlorophenyl)-3-((5-(1-phenylyinyl)isoquinolin-8-yl)methyl)urea] | 374 |
| COCCCc1ccc(CNC(=O)Nc2cccc(Cl)c2Cl)c2cnccc12 [Example 159, 1-(2,3-dichlorophenyl)-3-((5-(3-methoxypropyl)isoquinolin-8-yl)methyl)urea] | 478 |

More lines, now with the values ahead:

| IC50 [nM] | Compound |
| --- | --- |
| 1210 | CNC(=O)c1cccc(-c2ccc(CNC(=O)Nc3cccc(Cl)c3Cl)c3cnccc23)c1 [Example 161, 3-(8-((3-(2,3-dichlorophenyl)ureido)methyl)isoquinolin-5-yl)-N-methylbenzamide] |
| 1950 | CC(C)(C)OC(=O)N1CC=C(c2ccc(CNC(=O)Nc3cccc(Cl)c3Cl)c3cnccc23)CC1 [Example 162, tert-butyl 4-(8-((3-(2,3-dichlorophenyl)ureido)methyl)isoquinolin-5-yl)-5,6-dihydropyridine-1(2H)-carboxylate] |
| 2360 | O=C(O)CCc1ccc(-c2ccc(CNC(=O)Nc3cccc(Cl)c3Cl)c3cnccc23)cc1 [Example 163, 3-(4-(8-((3-(2,3-dichlorophenyl)ureido)methyl)isoquinolin-5-yl)phenyl)propanoic acid] |
| 4220 | CC(c1ccccc1)c1ccc(CNC(=O)Nc2cccc(Cl)c2Cl)c2cnccc12 (stereo not shown) [Example 164, 1-(2,3-dichlorophenyl)-3-((5-(1-phenylethyl)isoquinolin-8-yl)methyl)urea] |
| 4310 | CC(C)(C)OC(=O)N1CCC=C(c2ccc(CNC(=O)Nc3cccc(Cl)c3Cl)c3cnccc23)C1 [Example 165, tert-butyl 3-(8-((3-(2,3-dichlorophenyl)ureido)methyl)isoquinolin-5-yl)-5,6-dihydropyridine-1(2H)-carboxylate] |
| 4410 | O=C(NCc1ccc(-c2cccc(C(=O)N3CCOCC3)c2)c2ccncc12)Nc1cccc(Cl)c1Cl [Example 166, 1-(2,3-dichlorophenyl)-3-((5-(3-(morpholine-4-carbonyl)phenyl)isoquinolin-8-yl)methyl)urea] |
| 4420 | O=C(NCc1ccc(C2=CCNC2)c2ccncc12)Nc1cccc(Cl)c1Cl [Example 167, 1-(2,3-dichlorophenyl)-3-((5-(2,5-dihydro-1H-pyrrol-3-yl)isoquinolin-8-yl)methyl)urea] |
| 7070 | COc1cccc(-c2ccc(CNC(=O)Nc3ccccc3-c3ccccc3)c3cnccc23)c1 [Example 169, 1-([1,1′-biphenyl]-2-yl)-3-((5-(3-methoxyphenyl)isoquinolin-8-yl)methyl)urea] |
| 8190 | COc1cccc(-c2ccc(CNC(=O)Nc3ccc(F)cc3F)c3ncccc23)c1 [Example 170, 1-(2,4-difluorophenyl)-3-((5-(3-methoxyphenyl)quinolin-8-yl)methyl)urea] |
| 206 | COc1cccc(-c2ccc(CNC(=O)C3CC3c3ccccc3)c3ccccc23)c1 (stereo not shown) [Example 172, N-((4-(3-methoxyphenyl)naphthalen-1-yl)methyl)-2-phenylcyclopropanecarboxamide] |
